Measurements from EPA's ToxValDB 9.5 (doi:10.2903/j.efsa.2006.89r).
Values after ≈ are worked out from the molar mass of the structure shown.

Assays:
Anas platyrhynchos = details: oral, mortality
Apis mellifera = details: acute; duration: 48 hours; dermal; mortality
Bibionidae = details: chronic/long-term; duration: 28 days
Canidae = details: oral, Dog Other, clinical signs
Colinus virginianus = details: reproduction developmental
Daphnia magna = details: acute; duration: 48 hours; mortality
Lepomis macrochirus = details: acute; duration: 96 hours; mortality

`CCOC(=O)CCN(SN(C)C(=O)Oc1cccc2c1OC(C)(C)C2)C(C)C` [Benfuracarb] was tested, and the LD50 (Anas platyrhynchos; acute, unspecified) was 19.8 mg/kg, the LC50 (Anas platyrhynchos; short-term, feed) was 15 mg/kg-day and the LD50 (Apis mellifera) was 0.19 µg/piece. For the same molecule, the NOEC (Bibionidae) was 0.001 mg/L, the NOAEL (Canidae; chronic, duration: 2 years) was 2.5 mg/kg-day and the NOAEL (Canidae; chronic, duration: 6 months) was 2.5 mg/kg-day. For the same molecule, the NOAEL (Canidae; subchronic, duration: 13 weeks) was 0.625 mg/kg-day, the NOEC (Colinus virginianus) was 8.93 mg/kg-day and the LC50 (Daphnia magna) was 9.9 ng/mL (≈ 0.0241 µM). For the same molecule, the LC50 (Lepomis macrochirus) was 0.017 mg/L (≈ 0.0414 µM), the LD50 (Rattus norvegicus; acute, oral, mortality) was 205 mg/kg and the NOAEL (Rattus norvegicus; reproduction developmental, reproduction) was 1.2 mg/kg-day. The NOAEL (Rattus norvegicus; short-term, duration: 28 days, clinical chemistry) was 1.8 mg/kg-day.
